In assay [1] the test system is APP mRNA 5′ UTR (pSV2(APP)CAT reporter). The assay is described as follows: CAT reporter activity in pSV2(APP)CAT-transfected astrocytoma cells. In kind it is cell-based, human. The following applies: for increase in CAT activity, maximal: pSV2(APP)CAT-transfected astrocytoma cells. On the procedure: The pSV2(APP)CAT construct contains the APP gene 5′ UTR in between the SmaI and the NruI sites (+52 nt and +142 nt from the 5′ cap site respectively). pSV2(APP)CAT was prepared by two steps of subcloning. (1) A 3 kb SmaI-HindIII fragment containing the APP gene, including the coding region and a segment of the 3′ UTR was subcloned into compatible StuI-HindIII sites unique to the 5′ UTR of the CAT gene in the pSV2CAT expression vector. (2) The APP gene fragment in between the NruI and HindIII sites was removed from the construct. The restriction sites were then blunt-ended and religated. In the pSV2(APP)CAT transfectants, 90 nt of the APP gene 5′ UTR were expressed as part of a chimeric […] 5′ leader in the 1.5 kb APP/CAT transcript. The pSV2CAT construct contains the 5′ end of the CAT gene inserted into the unique polylinker site in pBluescript. A 250 nt HindIII/EcoRI fragment from the CAT gene in pSV2CAT was subcloned into the pBS vector (Stratagene). The CAT gene fragment codes for 36 nt of the CAT gene 5′ UTR and 218 bp of the 5′ end of the coding sequence of the CAT gene.
Astrocytoma and neuroblastoma cells were transfected with pSV2CAT or pSV2(APP)CAT by lipofection. Briefly, lipofectamine reagent (Boehringer) was added to DMEM (without serum) and allowed to sit 30 minutes at room temperature. Plasmids (10 μg) in an equal volume of DMEM were then added, and, after sitting for 45 minutes at room temperature, the lipid/DNA solution was added to 60% confluent cells on 100×20 mm cell culture plates. After 4 hours, this solution was removed, and the cells were washed twice in DMEM (without serum). Fresh DMEM medium (containing 10% fetal calf serum) was added. At this time, treatments were administered which included: (1) 0.5 ng/ml IL-1α; (2) 0.5 ng/ml IL-1β; (3) 5 μM Fe2TF (holo-transferrin); and (4) unstimulated controls. […]
After harvesting, cells were resuspended in 100 μl 0.25 M Tris, pH 7.8, and subjected to three cycles of freezing (liquid nitrogen) and […] (37° C.) to lyse cells. […] Protein concentration was determined by a Biorad assay, and exactly 20 μg of lysate was added to a CAT reaction mix containing 50 μl 1M Tris, pH 7.8, 20 μl acetylcoenzyme-A (3.5 mg/ml) and […] ^14C-labeled chloramphenicol (25 mCi/ml). […] For quantitative analysis, the areas on the TLC plates which aligned with dots on the film were excised and the radioactivity was counted in 5 ml of scintillation cocktail (Econofluor) using a scintillation counter (Hewlett Packard). In some experiments, CAT activity was measured by counting the amount of CAT reaction product diffusing into liquid scintillation fluid as described previously (Rogers, et al., Nucl. Acid Res. 22:2678 (1994)). […]

The test system of a further assay is APP/CAT mRNA. The assay is described as follows: RNase protection of APP/CAT mRNA in pSV2(APP)CAT-transfected astrocytoma cells. In kind it is cell-based, human. Conditions: 16 hours stimulation. How it is done:
Cells were lysed in 2 ml of a buffer containing 4 M guanidinium thiocyanate, 25 mM NaOac, pH 6.0, 100 mm β-mercaptoethanol. RNA was prepared after shearing the DNA and centrifuging the lysate at 31K, 23° C. for 12 hours through 5 ml of 5.7 M CsCl2 cushion. This procedure ensured that CAT mRNAs and endogenous ferritin mRNAs were purified as a pellet without contamination from plasmid DNA containing transfected CAT gene sequences. The RNA pellet was resuspended in TES buffer (10 mM Tris, pH 7.6, 1 mM EDTA, 0.5% SDS) and was extracted with an equal volume of phenol/chloroform, ethanol-precipitated and resuspended in TES buffer.
Steady-state levels of transfected CAT mRNA from astrocytoma and neuroblastoma pSV2(APP)(CAT) transfectants was characterized by RNase protection. A 261 nucleotide ^32P-labeled cRNA was transcribed from a HindIII digested DNA template isolated from the CAT gene in the pSV2CAT subclone (Rogers, et al., Nucl. Acid Res. 22: 2678 (1994); Campbell, et al., Biochem. Biophys. Res. Commun. 160: 453 (1989); Fahmy, et al., Biochem. J. 296; 175 (1993)). Labeled cRNA, antisense to the CAT gene, was hybridized to 20 μg of mRNA purified from pSV2(APP)(CAT) transfectants of astrocytoma cells. […] Kinase labeled HaeIII-digested X-174 DNA fragments were used as DNA markers for autoradiography and quantitation of CAT mRNA levels.

The values below come from US6849405B2, “Translation enhancer element of the human amyloid precursor protein gene” (The Brigham and Women's Hospital, Inc., priority 1997, dated 2005).

Values joined by “and” are separate entries in the source; they are usually repeats but may differ in a detail not shown here. Identical values can stand only once.

As for interleukin-1α [IL-1α], in assay [1] (pSV2(APP)CAT transfectants, matching experiments, average), the “increase in CAT activity, average” value is given as 2.3 fold. The “increase in CAT activity, maximal” value in assay [1] was 3 fold and 4 fold. Also, in the assay on APP/CAT mRNA (pSV2(APP)CAT transfectants, two separate transfections), the “decrease of steady-state level of CAT mRNA” value stood at 50%.
Consider interleukin-1β [IL-1β], for which, in assay [1] (pSV2(APP)CAT transfectants, parallel to the pSV2CAT transfection), the “enhancement of CAT activity, parallel transfection” value stood at 3 fold. In addition, the “increase in CAT activity, maximal” value in assay [1] is given as 4 fold. Besides, the “increase of steady-state APP/CAT mRNA level relative to unstimulated cells” value with APP/CAT mRNA (pSV2(APP)CAT transfected astrocytoma cells) stood at 30%.
